Each structure is given as a SMILES string.

Common to all, as to type: cell-based
One test relates to H2122 cells (KRAS G12C). As to the kind of experiment: Drug combination assay (CellTiter-Glo cell viability). Conditions: six days, 384-wells. The protocol:
(§1) Cells were seeded in either 96-well or 384-well plates 16 h before treatment at a density of 1000 cells per well. Then, cells were treated with varying concentrations of compound(s) as indicated in FIGS. 1-8 (384-wells) and FIGS. 10-105 (96-wells), either a single agent or in combination, for six days. The relative number of viable cells was estimated using CellTiter-Glo Luminescent Cell Viability Assay (Promega, G7573). Total luminescence was detected on a Wallac Multilabel Reader (Perkin-Elmer).
In general terms: ATP-based viability assays read luminescence as a measure of living cells.

Test [1] relates to cells resistant to Compound K2. As to the kind of experiment: Soft agar 3D culture. The conditions noted are these: combination with Compound K2 (a KRAS inhibitor); 11-14 day incubation; Gelcount cell counting. The protocol: Two heat blocks (1× without blocks, 1× with 50 ml tube block) were heated to 44° C. Flat-bottom 96-well non-tissue culture treated assay plates (Falcon 353219) and fluid reservoirs were kept at 37° C. 2×RPMI+20% FCS (which can be stored at 4° C.) were made and warmed to 37° C. 100 ml 1.2% agarose and 0.58% agarose solution was made by adding […] sterile water to a sterile 500 ml bottle and then carefully adding 1.2 gram/0.58 gram agarose (using normal out-of-the-hood weight), avoiding bubbles, foam, and sticking of undiluted agarose to walls as much as possible. The solution was then microwaved until fully dissolved and bubbling. The solution was then cooled for 10-15 minutes at room temperature and incubated at 37° C. The solution can be stored at room temperature for future use.
For each plate, 2 ml 1.2% agarose was mixed with 2 ml 2×RPMI+20% FCS in a 50 ml tube in a heat block by swirling the tube (minimizing pipetting up and down, as this cools the agarose too much). By double-tap (pipet is pushed in completely, liquid is taken up, then pushed out until first stop only), 40 μl 1.2% agarose/96-well was added, excluding edge 96-wells. The agarose was set at “waterpas” level and stored at 4° C. until further use. 1.2% agarose-containing plate was placed on ice for 10 minutes before plating cells.
Cells were trypsinized and counted. […]

Test [2] has as its system H358 resistant cells (KRAS G12C). Description: Drug combination assay (CellTiter-Glo cell viability). Conditions: six days, 96-wells. The protocol: as §1
In a further test the test system is H2030 cells (KRAS G12C). Described as above. The conditions noted are these: six days, 96-wells. As to the method:
as §1

The test system of test [3] is H358 parental cells (KRAS G12C). The description is as above. Conditions: six days, 96-wells. The protocol: as §1
Setting [4] is: combination with Compound K1 (a KRAS inhibitor).
Setting [5] is: combination with Compound K2 (a KRAS inhibitor).
The mark [6] stands for this setting: combination with Compound K3 (a KRAS inhibitor).
Where [7] appears, read: combination with Compound K4 (a KRAS inhibitor).

Consider `C=CC(=O)Nc1cc2c(c(-c3ccc(C(C)C)cc3)c1)OCC2` [Compound T2, N-(7-(4-isopropylphenyl)-2,3-dihydrobenzofuran-5-yl)acrylamide], for which the “% inhibition of H2122 cells (KRAS G12C)” value is “sensitizes cells resistant to Compound K1” with H2122 cells (KRAS G12C) (setting [4]) and “sensitizes cells resistant to Compound K2” with H2122 cells (KRAS G12C) (setting [5]). Moreover, the “soft agar 3D culture growth” value in test [1] is reported as “sensitizes cells resistant to Compound K2”.

As for `C=CC(=O)Nc1cnc(OC)c(/C=C/[C@H]2CC[C@H](C(F)(F)F)CC2)c1` [Compound T3, N-(6-methoxy-5-((E)-2-((1r,4r)-4-(trifluoromethyl)cyclohexyl)vinyl)pyridin-3-yl)acrylamide], the “% inhibition of H2122 cells (KRAS G12C)” value in the test with H2122 cells (KRAS G12C) (setting [4]) was “sensitizes cells resistant to Compound K1”; in the test with H2122 cells (KRAS G12C) (setting [5]), “sensitizes cells resistant to Compound K2”. The “combination effect on cell viability (qualitative)” value in test [2] (setting [4]) is “sensitizes cells resistant to Compound K1”; in test [2] (setting [5]), “sensitizes cells resistant to Compound K2”; in test [2] (setting [6]), “sensitizes cells resistant to Compound K3”; in test [2] (setting [7]), “sensitizes cells resistant to Compound K4”. Besides, the “% inhibition of H2030 cells (KRAS G12C)” value in the test with H2030 cells (KRAS G12C) (setting [4]) is “sensitizes cells resistant to Compound K1”; in the test on H2030 cells (KRAS G12C) (setting [5]), “sensitizes cells resistant to Compound K2”; in the test on H2030 cells (KRAS G12C) (setting [6]), “sensitizes cells resistant to Compound K3”; in the test with H2030 cells (KRAS G12C) (setting [7]) it was “sensitizes cells resistant to Compound K4”. For the same molecule, the “% inhibition of H358 parental cells (KRAS G12C)” value was “sensitizes cells resistant to Compound K1” in test [3] (setting [4]), “sensitizes cells resistant to Compound K2” in test [3] (setting [5]), “sensitizes cells resistant to Compound K3” in test [3] (setting [6]) and “sensitizes cells resistant to Compound K4” in test [3] (setting [7]).

Source of the values: patent US20240148733A1, “COMBINATION THERAPY” (Genentech, Inc., priority 2021, published 2024).
